Source: patent publication US11952328B2, “Selective ship inhibitors for treating disease” (THE RESEARCH FOUNDATION FOR THE STATE UNIVERSITY OF NEW YORK, priority 2018, dated 2024)
Entries after “also recorded” stand apart in the source; their conditions may differ.

Columns and labels:
[1] = test system: tumor; assay: Adoptive transfer of hematolymphoid cells from 3AC treated long-term survivors, survival after tumor challenge; type: in vivo, mice; conditions: cells from tumor challenged, 3AC treated long-term surviving donor vs naive donor; recipients not treated
From the text: To test for continued presence of such immunity, hematolymphoid cells were adoptively transferred from either a nave donor or from a tumor challenged, 3AC treated, long-term surviving (primed) donor into nave C57BL/6 hosts.

[2] = test system: NK cell compartment; conditions: uninterrupted, extended-duration treatment, six days each week; Fernandes et al. 2015; cited from earlier work
[3] = test system: RMA-Rael cells; assay: Acute rejection of RMA-Rael lymphoma, tumor burden by peritoneal lavage; type: in vivo, mice
Method: FIGS. 4A-4D show the effects of SHIP1 inhibition using 3AC in mice. 5×10^5 GFP-expressing RMA-Rael cells were injected into C57BL/6 (FIG. 4A), RAG1−/− (FIG. 4B), or into C57BL/6 hosts (FIG. 4C-4D) with antibody depleted (NK) or intact (Iso) NK cell compartment. Mice were treated with either SHIP inhibitor or vehicle for two days. Tumor burden was determined by flow cytometric analysis of peritoneal cavity contents recovered by peritoneal lavage performed on the third day. Graphs represent pooled data from two independent experiments using at least 4 SHIP inhibitor-treated mice and 4 vehicle-treated mice in each experiment. FIG. 4A (p=0.0433; Mann-Whitney U test). FIG. 4B (p=0.0007; Mann-Whitney U test). FIG. 4C (p=0.0153; Unpaired t test with Welch's correction). FIG. 4D (p=0.9188. Mann-Whitney U test).
To determine if acute SHIP inhibitor treatment promoted in vivo clearance of tumor cells expressing a ligand for such receptors, the ability of SHIP inhibitor treatment to increase host rejection of tumor targets in vivo using the C57BL/6-derived H2b T cell lymphoma, RMA-Rael was analyzed. NK cell mediated rejection of RMA- Rael cells requires perforin expression and is independent of IFNγ production, and thus this assay allows for interrogation of a different NK cell effector function than that analyzed in FIG. 3 (Hayakawa, Y. et al., Cutting edge: tumor rejection mediated by NKG2D receptor-ligand interaction is dependent upon perforin. J Immunol. (2002); 169: 5377-538). Mice were challenged with syngeneic tumor cells followed by treatment with 3AC or vehicle for 2 consecutive days. On the third day peritoneal lavage was performed to evaluate tumor burden. […] To assess whether NK cells contributed to acute tumor rejection the same experiment using NK cell depleted C57BL/6 hosts (DNK) was performed. […] This increase in tumor burden was not seen in vehicle treated mice that were also depleted of NK cells (FIG. 4D).

[4] = test system: RMA-Rael cells; assay: RMA-Rael viability following in vitro treatment; type: cell-based, mice; conditions: 24 h, doses given as 5-20 pM, vs solvent only
From the text: FIGS. 5A-5I show the effects of SHIP1 inhibitor as a chemotherapeutic. […] FIG. 5D and FIG. 5E show the representative histograms and box-and-whisker plots of FasL expression by NK cells from C56BL/6 (p=0.0002; Unpaired t test with Welch's correction) or RAG1−/− (p<0.0001; Mann-Whitney U test) tumor challenged, SHIP inhibitor or vehicle treated hosts. […] (NK cells p=0.0192; Unpaired t test with Welch's correction. T cells p=0.0659; Mann-Whitney U test). Additionally, FIGS. 5A-5G show the analysis by flow cytometry on day 3 after hosts receive SHIP inhibitor or vehicle for two consecutive days. NK cells are defined as NK1.1+CD3ε−. The graphs are representative of at least two independent experiments with at least four SHIP inhibitor and vehicle treated mice. […] Viability is expressed as frequency at a given concentration expressed as a percentage of solvent only treated cells. The kill curve summarizes pooled data from three independent experiments using six replicate wells/concentration with mean ±SEM indicated (n=18 per group. One-way ANOVA with Dunnett's multiple comparisons. 0 pM vs. 20 pM Adjusted p value =0.0001. 0 pM vs. 15 pM Adjusted p value =0.0001. 0 pM vs. 10 pM Adjusted p value =0.0001. 0 pM vs. 7.5 pM Adjusted p value =0.0001. 0 pM vs. 5 pM Adjusted p value =0.0001). […]

CC(C)CCC[C@@H](C)[C@H]1CC[C@H]2[C@@H]3CCC4C[C@H](N)CC[C@]4(C)[C@H]3CC[C@]12C (stereo partly drawn) [Compound 3AC, 3-α-aminocholestane]
survival of recipients of primed hematolymphoid cells [1]: significantly increased survival | NK cell compartment function (acute rejection of MHC-I mismatched BM graft) [2]: disabled NK cell compartment | tumor rejection ([3]; 3AC-treated hosts with intact NK cell compartment vs 3AC hosts depleted of NK cells): significantly greater tumor rejection | tumor burden ([3]; C57BL/6 hosts depleted of NK cells or not, 3AC vs vehicle): profound reduction of tumor burden; also recorded: large reduction in tumor burden | lymphoma burden ([3]; C57BL/6 hosts, 5×10^5 RMA-Rael, 2 consecutive days treatment, lavage on third day, vs vehicle): dramatic reduction | RMA-Rael viability (direct killing) [4]: capable of directly killing RMA-Rael cells; also recorded: cytotoxic
